From patent US20250194599A1, “PESTICIDE FORMULATIONS” (FMC CORPORATION, priority 2022, published 2025)

Tests used:
Type in all cases: in vivo
[1] = tested on: Cydia pomonella; assay: Field trial Example 1: fruit damage counts, 1000 fruit per plot, apple orchards; conditions: Trial 4 (highest codling moth infestation), apple orchard, Argentina; programs of Table 1; letters = significantly different groups (Chi-square)
Experimental: (§1) A field trial was conducted in Argentina to determine the effect of blending codling moth pheromone, (E,E)-8,10-dodecadien-1-ol, with chlorantraniliprole for control of coding moth population in apple orchards. The first flight of codling moth was targeted, at which time standard grower treatment pheromone dispensers had been placed in the respective fields. Applications of the chlorantraniliprole or chlorantraniliprole+pheromone were timed when eggs were expected to hatch.
(§2) Treatment programs comprising nine tracts of land across three farms were performed (see FIGS. 1A-C). SC=suspension concentrate; VP=vapor releasing product; WG=water-dispersible granules.
(§3) In brief, one treatment program was performed using an application of pheromone alone at 90 DD followed by applications of chlorantraniliprole plus pheromone at 250 DD and 250DD+21 days, respectively. A separate treatment was performed by applying chlorantraniliprole alone at 250 DD and 250DD+21 days. […]
(§4) Treatment effects were determined by conducting fruit damage counts prior to second generation flights by evaluating 1000 fruit in each plot for codling moth damage. […] The bands were removed during the second week of January, taken to the lab and counted.

[2] = tested on: Cydia pomonella; assay: Field trial Example 1: pupae counts in corrugated cardboard tree bands on 100 trees; conditions: Trial 4 (highest infestation), programs of Table 1
Experimental: as §1, §2, §3, §4

[3] = tested on: Cydia pomonella; assay: Field trial Example 2: number of damaged fruit across treatment groups, apple; conditions: Example 2, foliar application, treatments of Table 4, FIGS. 4-5
Experimental: (§5) A field trial was conducted in Argentina to evaluate the efficacy of chlorantraniliprole in combination with a kairomone, ethyl (2E,4Z)-2,4-decadienoate, to improve Cydia pomonella control in foliar application of apple (Malus domestica) compared to the efficacy of chlorantraniliprole alone and kairomone alone. SC=suspension concentrate; CS=capsule suspension
(§6) Efficacy of the trial was evaluated by (1) comparing the number of damaged fruit across the treatment groups; and (2) comparing the larva captured per hectare that were captured from corrugated cardboard traps settled in 100 trees. As shown in FIGS. 4-5, there was a significant difference in damaged fruits treatments that included chlorantraniliprole+kairomone compared to fruits treated with only chlorantraniliprole.

[4] = tested on: Cydia pomonella; assay: Field trial Example 2: larva per hectare captured from corrugated cardboard traps in 100 trees; conditions: treatments of Table 4, FIG. 6
Experimental: as §5, §6

Structure (SMILES)	# Damaged Fruit/ 1000 fruit [1]	# of Pupae Found [2]	damaged fruits out of 1000 fruits per treatment [3]	larva per hectare captured in corrugated cardboard traps [4]
CNC(=O)c1cc(Cl)cc(C)c1NC(=O)c1cc(Br)nn1-c1ncccc1Cl [Chlorantraniliprole Alone, 3-bromo-N-(4-chloro-2-methyl-6-(methylcarbamoyl)phenyl)-1-(3-chloropyridin-2-yl)-1H-pyrazole-5-carboxamide]	39c	1782		
CCCCC/C=C\C=C\C(=O)OCC [Kairomone, ethyl (2E,4Z)-2,4-decadienoate]			number of damaged fruits significantly higher compared to all other treatments	larva per hectare significantly higher compared to all other treatments
